# Results from PMC12828229, “Aspergillus fumigatus PolX1 is an early ancestor of vertebrate terminal deoxynucleotidyl transferases” (Nucleic Acids Research, 2026).
# Target: T1, AfPolX1 (Aspergillus fumigatus, UniProt Q4X1T5)
# T1 construct: gene AFUA_2G08840; catalytic core (8 kDa, fingers, palm, thumb), residues 297-704 in methods, 298-704 in results; codon-optimised in pET28a(+), E. coli Rosetta 2 (DE3); N-terminal His6 tag cut off with TEV protease
# T1 sequence (Q4X1T5 297-704): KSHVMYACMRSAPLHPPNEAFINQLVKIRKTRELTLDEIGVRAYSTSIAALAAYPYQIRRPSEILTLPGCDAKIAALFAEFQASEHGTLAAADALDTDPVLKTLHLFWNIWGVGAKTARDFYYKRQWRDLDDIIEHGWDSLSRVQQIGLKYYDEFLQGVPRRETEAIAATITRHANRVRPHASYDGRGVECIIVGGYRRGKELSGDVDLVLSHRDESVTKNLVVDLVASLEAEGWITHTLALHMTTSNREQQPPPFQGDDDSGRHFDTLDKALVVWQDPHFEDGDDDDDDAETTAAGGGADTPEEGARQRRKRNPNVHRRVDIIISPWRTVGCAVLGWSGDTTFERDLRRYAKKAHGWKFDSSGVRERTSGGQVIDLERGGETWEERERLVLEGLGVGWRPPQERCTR
# Assay: single-turnover gap-filling primer extension, denaturing gel
# Assay type: biochemical
# Details: 1-nt gapped 5'-phosphate DNA (D1) templating dT, 150 nM; 4 uM enzyme; 1 mM dATP; 10 mM Mg acetate; pH 7.5; 37 °C
compound,measurement,value
Nc1ncnc2c1ncn2[C@H]1C[C@H](O)[C@@H](COP(=O)(O)OP(=O)(O)OP(=O)(O)O)O1 [dATP],kobs,Correct nucleotide incorporation proceeded at comparable rates for all the substrates
